Source: article PMC6429262, “Design and Synthesis of Novel Anti-Proliferative Emodin Derivatives and Studies on their Cell Cycle Arrest, Apoptosis Pathway and Migration” (Molecules, 2019)

System: HepG2 cells
Assay: Wound healing assay (cell migration)
Type: cell-based
Details: Homo sapiens, 48 h, read-out: Inhibition (%) of migration (cell inhibitory rate)
Protocol: To evaluate the effect of compound 7a on cancer migration, a wound healing assay was conducted to determine whether compound 7a could prevent HepG2 cell migration. After culturing HepG2 cells for 48 h in the presence and absence of compound 7a at 0, 0.25, 0.5, and 1 μM, a pipette tip was streaked through the cell culture, resulting in a cell deficient space. The territory recovered by the HepG2 cells was used to observe the migration inhibition capability of compound 7a.
HepG2 cells were grown in DMEM medium containing growth factors at a cell density of 1 × 10^5 cells/mL for 24 h. A disposable […] plastic pipette tip was used to scratch the monolayer of cells in a streaking motion. Compounds were added to the streaked cell culture at the indicated concentrations. The streaked cells were then cultured in serum-free medium for an additional 48 h and photographed. To quantify the experimental results, the % cell inhibitory rate was calculated by the equation: cell inhibitory rate (%) = (1 − Ddrug/Dcontrol) × 100%, where Ddrug is the mean distance of cell migration in drug group and Dcontrol is the mean distance of cell migration in control group. Pictures of the initial wounded monolayers were compared with the corresponding pictures of cells at the end of the incubation, and data were presented as mean ± SD from three independent experiments.

Work on `Cc1cc(O)c2c(c1)C(=O)c1cc(OCCCOC(=O)[C@@H](C)N)cc(O)c1C2=O.O=C(O)C(F)(F)F` [Compound 7a, (R)-1-(3-(4,5-Dihydroxy-7-methyl-9,10-dioxo-9,10-dihydroanthracen-2-yloxy)propoxy)-1-oxopropan-2-aminium 2,2,2-trifluoroacetate] yielded an inhibition at 0.25 µM (HepG2, 0.25 μM) of 12.6 ± 1.69%, an inhibition at 0.5 µM (HepG2, 0.5 μM) of 23.7 ± 0.59% and an inhibition at 1 µM (HepG2, 1 μM) of 40.2 ± 2.92%.
